Test results published in the NIST ThermoML archive (doi:10.1021/je700260f).

Conditions: 293.15 K, Liquid, Vibrating tube method

FC(C(F)(F)F)C(F)(F)F [1,1,1,2,3,3,3-heptafluoropropane]
Conditions | mass density [kg/m3]
19492 kPa | 1505.8
19631 kPa | 1506.6
19665 kPa | 1506.5
19699 kPa | 1506.6
19732 kPa | 1506.9
19762 kPa | 1506.9
19806 kPa | 1507.1
19844 kPa | 1507.3
19868 kPa | 1507.3
19906 kPa | 1507.5
19940 kPa | 1507.7
19974 kPa | 1507.8
20007 kPa | 1507.9
20047 kPa | 1508
20080 kPa | 1508.1
20109 kPa | 1508.3
20152 kPa | 1508.4
20190 kPa | 1508.6
20215 kPa | 1508.7
20258 kPa | 1508.8
20302 kPa | 1508.9
20335 kPa | 1509.2
20375 kPa | 1509.2
20404 kPa | 1509.3
20434 kPa | 1509.5
20478 kPa | 1509.6
20517 kPa | 1509.9
20546 kPa | 1510
20591 kPa | 1510.1
20630 kPa | 1510.1
20659 kPa | 1510.3
20702 kPa | 1510.5
20732 kPa | 1510.6
20761 kPa | 1510.6
20802 kPa | 1510.8
20843 kPa | 1511
20873 kPa | 1511
20907 kPa | 1511.2
20982 kPa | 1511.5
21017 kPa | 1511.6
21048 kPa | 1511.8
21094 kPa | 1511.9
21134 kPa | 1512
21164 kPa | 1512.1
21209 kPa | 1512.3
21245 kPa | 1512.4
21279 kPa | 1512.5
21314 kPa | 1512.7
21359 kPa | 1512.8
21389 kPa | 1513
21458 kPa | 1513.1
21488 kPa | 1513.2
21669 kPa | 1513.9
21699 kPa | 1513.9
21739 kPa | 1514.2
21927 kPa | 1514.8
21967 kPa | 1515
22009 kPa | 1515.2
22034 kPa | 1515.3
22076 kPa | 1515.4
22122 kPa | 1515.5
22152 kPa | 1515.7
22194 kPa | 1515.8
22230 kPa | 1515.9
22261 kPa | 1516.2
22291 kPa | 1516.2
22322 kPa | 1516.3
22358 kPa | 1516.3
22404 kPa | 1516.5
22440 kPa | 1516.7
22476 kPa | 1516.8
22522 kPa | 1516.9
22548 kPa | 1517.1
22584 kPa | 1517.1
22625 kPa | 1517.4
22661 kPa | 1517.5
22702 kPa | 1517.6
22744 kPa | 1517.7
22781 kPa | 1517.9
22813 kPa | 1518
22849 kPa | 1518.2
22886 kPa | 1518.3
22923 kPa | 1518.4
22959 kPa | 1518.6
23001 kPa | 1518.7
23042 kPa | 1518.8
23072 kPa | 1518.8
23118 kPa | 1519
23154 kPa | 1519.1
23191 kPa | 1519.3
23228 kPa | 1519.5
23271 kPa | 1519.7
23308 kPa | 1519.7
23350 kPa | 1519.8
23392 kPa | 1520
23424 kPa | 1520.1
23466 kPa | 1520.2
23513 kPa | 1520.5
23540 kPa | 1520.6
23577 kPa | 1520.5
23615 kPa | 1520.7
23648 kPa | 1520.9
23692 kPa | 1521
23735 kPa | 1521.1
23815 kPa | 1521.5
23852 kPa | 1521.6
23883 kPa | 1521.6
23925 kPa | 1521.8
23962 kPa | 1521.9
23986 kPa | 1522.1
24019 kPa | 1522.1
24048 kPa | 1522.3
24087 kPa | 1522.4
24120 kPa | 1522.5
24149 kPa | 1522.6
24187 kPa | 1522.7
24229 kPa | 1522.8
24263 kPa | 1523
24297 kPa | 1523
24326 kPa | 1523.2
24354 kPa | 1523.2
24393 kPa | 1523.3
24422 kPa | 1523.3
24451 kPa | 1523.5
24485 kPa | 1523.6
24524 kPa | 1523.8
24553 kPa | 1523.9
24587 kPa | 1524.1
24630 kPa | 1524.2
24659 kPa | 1524.3
24698 kPa | 1524.5
24728 kPa | 1524.6
24757 kPa | 1524.6
24786 kPa | 1524.7
24816 kPa | 1524.7
24851 kPa | 1524.9
24886 kPa | 1525
24920 kPa | 1525.2
24949 kPa | 1525.2
24991 kPa | 1525.5
25030 kPa | 1525.6
25059 kPa | 1525.6
25097 kPa | 1525.8
25136 kPa | 1525.9
25165 kPa | 1526.1
25199 kPa | 1526.1
25229 kPa | 1526.1
25268 kPa | 1526.4
25297 kPa | 1526.4
25326 kPa | 1526.6
25360 kPa | 1526.8
25393 kPa | 1526.6
25438 kPa | 1526.9
25466 kPa | 1527
25496 kPa | 1527.2
25530 kPa | 1527.2
25569 kPa | 1527.4
25594 kPa | 1527.4
25639 kPa | 1527.4
25678 kPa | 1527.7
25708 kPa | 1527.9
25747 kPa | 1527.9
25791 kPa | 1528.1
25816 kPa | 1528.2
25845 kPa | 1528.1
25889 kPa | 1528.4
25923 kPa | 1528.5
25958 kPa | 1528.6
25994 kPa | 1528.8
26024 kPa | 1528.9
26068 kPa | 1529
26112 kPa | 1529.1
26141 kPa | 1529.3
26181 kPa | 1529.4
26220 kPa | 1529.5
26250 kPa | 1529.5
26284 kPa | 1529.7
26319 kPa | 1529.8
26349 kPa | 1529.9
26391 kPa | 1530.1
26430 kPa | 1530.1
26455 kPa | 1530.3
26504 kPa | 1530.5
26534 kPa | 1530.6
26570 kPa | 1530.6
26610 kPa | 1530.7
26646 kPa | 1530.8
26682 kPa | 1530.9
26717 kPa | 1531.1
26753 kPa | 1531.3
26784 kPa | 1531.3
26824 kPa | 1531.4
26864 kPa | 1531.6
26899 kPa | 1531.6
26939 kPa | 1531.8
26979 kPa | 1532
27009 kPa | 1532.1
27045 kPa | 1532.2
27080 kPa | 1532.3
27115 kPa | 1532.4
27151 kPa | 1532.6
27188 kPa | 1532.6
27224 kPa | 1532.8
27265 kPa | 1532.9
27302 kPa | 1533.1
